Like-named read-outs stand apart in the source and are kept apart here. Bounds are passed on as bounds.

The source of these data is patent US20200276334A1, “New Therapy for Pompe Disease” (Erasmus University Medical Center Rotterdam, priority 2017, published 2020).

The test system of series [1] is Control 1 iPSCs. As to the kind of experiment: Optimization of CHIR99021 concentration, Control 1 iPSC colonies (confluency, Pax7 staining). The format is cell-based, human. The method, then: (§1) A confluent iPSC culture in a 35 mm dish was incubated for 5 minutes at 37° C. with 2 mg/ml collagenase IV in DMEM/F12, cut into pieces with a 23 gauge needle, detached with a cell scraper and split into a 10 cm dish with a confluency of 40%. After 5 days, differentiation into myogenic progenitor cells (MPCs) was started with myogenic differentiation medium (DMEM/F12, 1% Insulin-Transferrin-Selenium-Ethanolamine, 1% penicillin/streptomycin/L-glutamine) supplemented with 3.5 μM CHIR99021 for 5 days and changed to myogenic differentiation medium supplemented with 20 ng/ml FGF2 (Peprotech. London. UK) for 14 days. The last 16 days, cells were cultured in myogenic differentiation medium only. For FACS purification cells were detached with TrypLE and stained on ice with anti-C-MET-APC (1:50, R&D systems, Minneapolis Minn.) and anti-HNK-1-FITC (1:100, Aviv Systems Biology, San Diego. Calif.) antibodies. Prior to FACS, Hoechst (33258, Life Technologies, Carlsbad, Calif.) was added to stain live cells. The c-MET^+/Hoechst^+/Hnk-1^− fraction was sorted in MPC proliferation medium (DMEM high glucose supplemented with 10% fetal bovine serum, 1% penicillin/streptomycin/L-glutamine and 100 ng/ml FGF2) supplemented with 1× Revitacell supplement (Gibco, Waltham. Mass.). For slightly positive cultures, MPCs were sorted with a maximum sorting time of 20 minutes and pooled into a single well until amount of 20.000 for 96 well, 40.000 for 48 well or 80.000 for 24 well was reached. After 24 hours. MPCs were expanded in MPC proliferation medium or cryopreserved. Further details are described previously (van der Wal et al., 2017).
(§2) Differentiated cells were fixed by adding 1 volume of 4% paraformaldehyde (PFA) (Merck, Kenilworth, N.J.) in PBS to the medium. PFA was incubated for 10 minutes at room temperature and afterwards replaced by PBS. Fixed cells were either stored at 4° C. or directly stained. For staining, cells were permeabilized for 5 minutes with 0.1% Triton X-100 (AppliChem, Darmstadt, Germany) in PBS and blocked for 30 minutes at room temperature in blocking solution (PBS-T (0.1% Tween. Sigma Aldrich, Irvine. UK) with 3% BSA (Sigma Aldrich. Irvine, UK)). Primary antibodies (Table 5) were incubated 1 hour at room temperature and diluted into 0.1% BSA in PBS-T. The unbound first antibody was removed by washing three times for 5 minutes with PBS-T. Secondary antibodies (1:500, Alexa-Fluor-594-α-goat, Alexa-Fluor-488-α-mouse, Alexa-Fluor-594-α-rabbit, Alexa-Fluor-488-α-rabbit, Invitrogen, Carlsbad, Calif. or horse anti-mouse biotin, Vector Laboratories, Burlingame, Calif.) were incubated for 30 minutes at room temperature in PBS-T. When a secondary biotinylated antibody was used cells were washed three times for 5 minutes with PBS-T and incubated with Streptavidine 594 (1:500. Invitrogen, Carlsbad. Calif.,). The cells were subsequently washed two times for 5 minutes with PBS and incubated for 15 minutes with Hoechst (1:15000. Thermo Scientific, Waltham, Mass.). Cells were imaged in PBS.
(§3) The first step of the differentiation procedure from iPSCs into MPCs is the stimulation of the Wnt pathway with CHIR99021. In a previous study on which the current protocol was based. […] In order to define the optimal concentration of CHIR99021 we generated single cells from iPSCs, and incubated these with 10 μM CHIR99021 for 2 days, followed by the differentiation procedure highlighted in FIG. 5. […] Generating single iPSCs in feeder-based culture systems causes massive apoptosis and addition of Rock inhibitor is required (Watanabe et al., 2007). To keep the differentiation protocol applicable for feeder-dependent and feeder-free cultures we decided to further optimize the concentration of CHIR99021 on plated iPSC colonies with a range from 3 to 5 μM CHIR99021, with incubation for 4, 5, 8 or 10 days. […] To avoid toxicity, we used a concentration of 3.5 μM CHIR99021 in our final differentiation protocol.

In series [2] the test system is Control 2 iPSCs. Briefly: Optimization of CHIR99021 concentration, Control 2 iPSC colonies (confluency, Pax7 staining). The format is cell-based, human. As to the method: as §1, §2, §3
Series [3] relates to iPSC lines used in this study. As to the kind of experiment: CHIR99021 optimisation for differentiation of iPSCs into myogenic progenitor cells. The format is cell-based, human. As to the method: as §1
The first step of the differentiation procedure from iPSCs into MPCs is the stimulation of the Wnt pathway with CHIR99021. In a previous study on which the current protocol was based. […] In order to define the optimal concentration of CHIR99021 we generated single cells from iPSCs, and incubated these with 10 μM CHIR99021 for 2 days, followed by the differentiation procedure highlighted in FIG. 5. […]

Series [4] concerns pluripotent stem cells. The settings on record: cited from earlier work.
For series [5] the following is noted: cited from earlier work.

As for `Cc1cnc(-c2cnc(NCCNc3ccc(C#N)cn3)nc2-c2ccc(Cl)cc2Cl)[nH]1` [CHIR99021, 6-[2-[[4-(2,4-dichlorophenyl)-5-(5-methyl-1H-imidazol-2-yl)pyrimidin-2-yl]amino]ethylamino]pyridine-3-carbonitrile], the Confluency in series [1] (3 μM CHIR99021, 4 days) worked out at 65%; in series [1] (3 μM CHIR99021, 5 days) it was 50%; in series [1] (3 μM CHIR99021, 8 days), 40%; in series [1] (3 μM CHIR99021, 10 days), 40%; in series [1] (4 μM CHIR99021, 4 days), 85%; in series [1] (4 μM CHIR99021, 5 days) it was 100%. Further, the Confluency in series [1] (4 μM CHIR99021, 8 days) is 75%; in series [1] (4 μM CHIR99021, 10 days), 50%; in series [1] (5 μM CHIR99021, 4 days) it was 60%; in series [1] (5 μM CHIR99021, 5 days), 70%; in series [1] (5 μM CHIR99021, 8 days), 0%; in series [1] (5 μM CHIR99021, 10 days), 0%. The Confluency in series [2] (3 μM CHIR99021, 4 days) was determined as 95%; in series [2] (3 μM CHIR99021, 5 days), 100%; in series [2] (3 μM CHIR99021, 8 days) it was 90%; in series [2] (3 μM CHIR99021, 10 days), 95%; in series [2] (4 μM CHIR99021, 4 days) it was 95%; in series [2] (4 μM CHIR99021, 5 days) it was 95%. Besides, the Confluency amounted to 95% in series [2] (4 μM CHIR99021, 8 days); 85% in series [2] (4 μM CHIR99021, 10 days); 95% in series [2] (5 μM CHIR99021, 4 days); 95% in series [2] (5 μM CHIR99021, 5 days); 50% in series [2] (5 μM CHIR99021, 8 days); 30% in series [2] (5 μM CHIR99021, 10 days). Also, the “Pax7+” value in series [1] (3 μM CHIR99021, 4 days) is recorded as “+ +”; in series [1] (4 μM CHIR99021, 4 days), “+ + +”; in series [1] (4 μM CHIR99021, 5 days), “+ + +”; in series [1] (4 μM CHIR99021, 10 days), “+ +”; in series [1] (5 μM CHIR99021, 4 days), “+ +”; in series [1] (5 μM CHIR99021, 5 days), “+ + +”. Besides, the “Pax7+” value in series [2] (4 μM CHIR99021, 4 days) is given as “+ +”; in series [2] (4 μM CHIR99021, 5 days), “+ +”; in series [2] (4 μM CHIR99021, 8 days), “+ +”; in series [2] (5 μM CHIR99021, 5 days), “+ +”. Besides, in series [3] (control 1 and control 2 iPSCs, 4 μM CHIR99021 for 5 days, range tested 3 to 5 μM for 4, 5, 8 or 10 days), the “Pax7 staining, amount of Pax7-positive areas in the culture” value is listed as “highest amount of Pax7-positive areas”. Moreover, in series [3] (plated iPSC colonies), the “concentration resulting in higher toxicity levels and more variable response among iPSC lines” value was > 4 µM. Also, in series [3] (single cells from iPSCs, 10 μM CHIR99021 for 2 days), the “Pax7 positive cells after 40 days of differentiation” value is recorded as “Pax7 positive cells were observed”. The “induction of paraxial mesoderm” value in series [4] (10 μM CHIR99021 incubated for 2 days, Shelton et al., 2014) is “better induction of paraxial mesoderm”. For the same compound, the “concentration at which toxicity was described” value in series [4] (Borchin et al., 2013) is “higher than 3 μM”.
As to “recombinant human GAA: recombinant human acid α-glucosidase used for enzyme replacement therapy”, the results for the half life in series [5] (in blood) and in series [5] (in cells) were 2 to 3 h and “several days”, respectively.
